The values below come from patent publication US20090018150A1, “5-Ht2b Receptor Antagonists” (ASTERAND UK LIMITED, priority 2003, published 2009).

Experiment [1] deals with T1, human cloned 5-HT2B receptors (Homo sapiens, UniProt P41595).
T1 construct: expressed in transfected cells; host or cells: CHO-K1
The experiment can be described thus: Human cloned 5-HT2B receptor binding assay. To be noted: [3H]LSD (1 nM) displacement, membranes of CHO-K1 cells expressing cloned 5-HT2B receptor; read-out: 5-HT2B pKi (converted). On the procedure:
The binding affinity of the compounds for human cloned 5-HT2B receptors was determined using the following assay.
CHO-K1 cells expressing cloned 5-HT2B receptor were maintained in Ultra-CHO medium containing 400 μg/ml of G418, 100 U/ml penicillin, 100 μg/ml streptomycin, 2.5 μg/ml fungizone and 1-foetal bovine serum, in 95/5% O2/CO2 at 37° C. The cells were harvested using 0.25% trypsin and were centrifuged at 800 rpm for 8 minutes. The cells were homogenised in 50 mM HEPES buffer containing 1 mM disodium EDTA and 1 mM PMSF at pH 7.4, using a Dounce homogeniser (20 strokes). The homogenate was centrifuged at 2280 rpm (1000 g) and 4° C. for 10 minutes, after which the supernatant was removed by decanting. The pellet was re-homogenised as above, and the resulting supernatant removed and combined with that already obtained. The supernatant solution was then centrifuged at 18300 rpm (40000 g) for 10 minutes at 4° C. using a Sorvall centrifuge. The supernatant was removed, and the pellet was re-suspended in 50 mM buffer at pH 7.4 using a Ultra-turrax T25 Polytron, before centrifugation again at 40000 g as above. This wash procedure was repeated, after which the membrane preparation was stored at a concentration of 1 mg/ml at −80° C. until use.
The membranes were thawed rapidly and diluted in assay buffer containing Tris-HCl (50 mM, pH 7.4), ascorbic acid (0.1°) and calcium chloride (4 mM). The membranes were homogenised to resuspend them, prior to adding 10 or 15 μg of membranes to assay wells containing [^3H]LSD (1 nM), assay buffer (50 mM Tris, 4 mM calcium chloride and 0.1° ascorbic acid) containing pargyline (10 μM), and the test compounds (1×10^−10 to 1×10^−4M). Non specific binding was determined in the presence of 100 μM 5-HT. After 30 minutes incubation at 37° C., the assay mixture was filtered through a combination of GF-C and GF-B filters, pre-soaked in 1% polyethyleneimine, using a Brandel cell harvester, and were washed three times using 50 mM Tris-HCl. Radioactivity retained on the filters was determined by liquid scintillation counting. For each test compound, the concentration that inhibited binding of [^3H]LSD by 50% was determined using curve fitting software (Prism). Kd values (concentration of LSD required to occupy 50% of the receptor binding sites at equilibrium) determined from saturation binding studies were then used to calculate inhibition dissociation constants (Ki) using the following equation: […]
This approach follows that set out in Kenakin, T. P. Pharmacologic analysis of drug-receptor interaction. Raven Press, New York, 2nd Edition.

Experiment [2] deals with T2, cloned human 5-HT2A receptor (Homo sapiens, UniProt P28223).
T2 construct: purchased Euroscreen; host or cells: CHO-K1
T2 sequence (P28223 whole entry): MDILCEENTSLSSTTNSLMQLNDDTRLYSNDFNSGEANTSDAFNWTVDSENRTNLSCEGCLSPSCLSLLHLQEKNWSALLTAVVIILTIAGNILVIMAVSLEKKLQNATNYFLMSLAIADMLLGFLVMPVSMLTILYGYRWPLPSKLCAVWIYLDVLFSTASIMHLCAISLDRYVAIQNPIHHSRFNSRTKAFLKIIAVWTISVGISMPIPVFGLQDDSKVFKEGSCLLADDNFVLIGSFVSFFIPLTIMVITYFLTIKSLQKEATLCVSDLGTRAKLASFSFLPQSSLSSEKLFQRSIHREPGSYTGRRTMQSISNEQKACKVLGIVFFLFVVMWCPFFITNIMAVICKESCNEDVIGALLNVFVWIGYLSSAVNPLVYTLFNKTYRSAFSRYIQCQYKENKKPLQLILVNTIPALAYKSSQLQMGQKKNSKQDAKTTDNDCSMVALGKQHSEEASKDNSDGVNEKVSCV
The experiment can be described thus: Human 5-HT2A receptor binding assay. The settings on record: [3H]ketanserin (1 nM) displacement, CHO-K1 cell membranes; read-out: 5-HT2A pKi (converted). On the procedure:
(§1) The binding affinity of ligands for human 5-HT2A and 5-HT2C receptors was determined using the following assay.
Membrane preparations from CHO-K1 cells expressing the cloned human 5-HT2A receptor were obtained (Euroscreen). The membranes were thawed rapidly and diluted in assay buffer containing Tris-HCl (50 mM, pH 7.7). The membranes were resuspended by homogenisation, prior to adding 15 μg of membranes to assay wells containing [3H]ketanserin (1 nM), assay buffer (50 mM Tris at pH 7.4) containing pargyline (10 μM), and test compounds (1×10^−10 to 1×10^−4M). Non specific binding was determined in the presence of 100 μM mianserin. After 15 minutes incubation at 37° C., the assay mixture was filtered through a combination of GF-C and GF-B filters, pre-soaked in 0.05% Brij, using a Brandel cell harvester, and were washed three times using ice cold Tris-HCl buffer (50 mM). Radioactivity retained on the filters was determined by liquid scintillation counting. For each test compound, the concentration that inhibited binding of [^3H]ketanserin by 50% was determined using curve fitting software (Prism). Kd values (concentration of ketanserin required to occupy 50% of the receptor binding sites at equilibrium) determined from saturation binding studies were then used to calculate inhibition dissociation constants (Ki) using the following equation: […]

The target in experiment [3] is T3, cloned human 5-HT2C receptor (Homo sapiens, UniProt P28335).
T3 construct: purchased Euroscreen; host or cells: CHO-K1
T3 sequence (P28335 33-458): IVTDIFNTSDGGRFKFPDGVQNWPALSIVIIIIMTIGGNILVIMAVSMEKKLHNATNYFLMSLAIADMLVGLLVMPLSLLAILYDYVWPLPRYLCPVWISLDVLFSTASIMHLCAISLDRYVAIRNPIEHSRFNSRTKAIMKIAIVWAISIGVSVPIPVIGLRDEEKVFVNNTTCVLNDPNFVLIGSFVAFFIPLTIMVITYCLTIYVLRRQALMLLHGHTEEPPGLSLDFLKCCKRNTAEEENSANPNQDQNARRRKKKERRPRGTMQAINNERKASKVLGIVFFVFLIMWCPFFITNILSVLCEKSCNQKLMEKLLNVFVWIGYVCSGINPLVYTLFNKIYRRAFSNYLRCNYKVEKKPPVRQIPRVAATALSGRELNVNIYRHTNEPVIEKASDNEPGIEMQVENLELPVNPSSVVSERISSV
The experiment can be described thus: Human 5-HT2C receptor binding assay. To be noted: [3H]mesulergine (1 nM) displacement, CHO-K1 cell membranes; read-out: 5-HT2C pKi (converted). On the procedure: as §1
Membrane preparations from CHO-K1 cells expressing the cloned human 5-HT2C receptor were obtained (Euroscreen). The membranes were thawed rapidly and diluted in assay buffer containing Tris-HCl (50 mM, pH 7.7), ascorbic acid (0.1%) and pargyline (10 μM). The membranes were resuspended by homogenisation, prior to adding 6 μg of membranes to assay wells containing [^3H]mesulergine (1 nM), assay buffer (50 mM Tris at pH 7.7 and 0.1% ascorbic acid) containing pargyline (10 μM), and test compounds (1×10^−10 to 1×10^−4M). Non specific binding was determined in the presence of 100 μM mianserin. After 30 minutes incubation at 37° C., the assay mixture was filtered through a combination of GF-C and GF-B filters, pre-soaked in 1% bovine serum albumin, using a Brandel cell harvester, and were washed three times using ice cold Tris-HCl buffer (50 mM). Radioactivity retained on the filters was determined by liquid scintillation counting. For each test compound, the concentration that inhibited binding of [^3H]mesulergine by 50% was determined using curve fitting software (Prism). Kd values (concentration of mesulergine required to occupy 50% of the receptor binding sites at equilibrium) determined from saturation binding studies were then used to calculate inhibition dissociation constants (Ki) using the following equation: […]

Molecules are shown by their SMILES. Counter-ions that a name gives are not always drawn.

T1 sequence (P41595 whole entry): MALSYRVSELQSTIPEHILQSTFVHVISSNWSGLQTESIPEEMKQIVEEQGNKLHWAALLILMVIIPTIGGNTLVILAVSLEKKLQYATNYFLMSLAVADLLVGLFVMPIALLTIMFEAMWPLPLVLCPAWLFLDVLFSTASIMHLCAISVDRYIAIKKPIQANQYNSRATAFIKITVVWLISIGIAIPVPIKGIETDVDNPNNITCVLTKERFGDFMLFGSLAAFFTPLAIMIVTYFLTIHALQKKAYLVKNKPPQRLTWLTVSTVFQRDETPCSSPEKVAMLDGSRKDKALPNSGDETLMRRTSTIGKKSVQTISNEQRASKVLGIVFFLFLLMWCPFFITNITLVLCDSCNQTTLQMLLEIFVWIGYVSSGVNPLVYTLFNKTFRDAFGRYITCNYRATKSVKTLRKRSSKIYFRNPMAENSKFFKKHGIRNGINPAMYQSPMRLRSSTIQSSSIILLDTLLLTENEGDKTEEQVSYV

As for `Cc1cc(Nc2ccc(N3CCOCC3)cc2)nc(N)n1` [Compound 2K, 6-methyl-N^4-(4-morpholin-4-yl-phenyl)-pyrimidine-2,4-diamine hydrochloride], the Ki in experiment [1] was below 1 µM; in experiment [2] it was above 10 µM; in experiment [3] it was above 10 µM.

Consider `COc1ccc(-c2c[nH]c(NC(C)=O)n2)c2ccccc12` [Compound 103B, N-[4-(4-Methoxy-naphthalen-1-yl)-1H-imidazol-2-yl]-acetamide], for which the Ki in experiment [1] was below 1 µM; in experiment [2] it was above 10 µM; in experiment [3] it was above 10 µM.

`Cc1c(-c2cnc(N)[nH]2)sc2ccccc12` [Compound 104O, 4-(3-Methyl-benzo[b]thiophen-2-yl)-1H-imidazol-2-ylamine]: the Ki in experiment [1] was below 0.316 µM; in experiment [2] it was above 10 µM; in experiment [3] it was above 0.316 µM.

As for `Cc1cc(Nc2cc(Br)ccc2C)nc(N)n1` [Compound 2AP, N^4-(5-bromo-2-methyl-phenyl)-6-methyl-pyrimidine-2,4-diamine], the values for the Ki in experiment [1], in experiment [2] and in experiment [3] were below 1 µM, above 1 µM and above 1 µM, respectively.

Regarding `Nc1ncc(-c2cccc(-c3ccc(F)cc3)c2)o1` [Compound 209J, 5-(4′-Fluoro-biphenyl-3-yl)-oxazol-2-ylamine, trifluoroacetic acid], the Ki is below 1 µM in experiment [1], above 1 µM in experiment [2] and above 1 µM in experiment [3].

Consider `Cn1nc(Nc2ccc(-c3ccccc3)cc2)nc1N` [Compound 411A, N^3-biphenyl-4-yl-1-methyl-1H-[1,2,4]triazole-3,5-diamine trifluoroacetic acid], for which the results for the Ki in experiment [1], in experiment [2] and in experiment [3] were below 1 µM, above 1 µM and above 1 µM, respectively.

As for `CC(=O)c1cccc(-c2cccc(Nc3cc(C)nc(N)n3)c2)c1` [Compound 10C, 1-[3′-(2-amino-6-methyl-pyrimidin-4-ylamino)-biphenyl-3-yl]-ethanone trifluoroacetic acid], the Ki in experiment [1] is below 1 µM; in experiment [2] it was above 0.316 µM; in experiment [3], above 0.316 µM.

Turning to `Cc1cc(Nc2ccc(-c3ccccc3)cc2)nc(N)n1` [Compound 11A, N^4-biphenyl-4-yl-6-methyl-pyrimidine-2,4-diamine trifluoroacetic acid], the Ki in experiment [1] was below 0.01 µM; in experiment [2], above 1 µM; in experiment [3], above 0.1 µM.

As to `Cc1cc(C)cc(-c2cccc(-c3cnc(N)o3)c2)c1` [Compound 209K, 5-(3′,5′-Dimethyl-biphenyl-3-yl)-oxazol-2-ylamine, trifluoroacetic acid], the Ki in experiment [1] was below 1 µM; in experiment [2], above 1 µM; in experiment [3] it was above 1 µM.

As to `COc1c(-c2cnc(NC(C)=O)[nH]2)ccc2ccccc12` [Compound 103E, N-[4-(1-Methoxy-naphthalen-2-yl)-1H-imidazol-2-yl]-acetamide], the Ki in experiment [1] was below 0.1 µM; in experiment [2], above 10 µM; in experiment [3] it was above 1 µM.

Regarding `Cc1cc(Nc2cccc(CO)c2)nc(N)n1` [Compound 2X, [3-(2-amino-6-methyl-pyrimidin-4-ylamino)-phenyl]-methanol hydrochloride], the Ki in experiment [1] was below 1 µM; in experiment [2], above 1 µM; in experiment [3] it was above 1 µM.

In the case of `COc1ccc(Nc2cc(C)nc(N)n2)cc1Cl` [Compound 2AC, N^4-(3-chloro-4-methoxy-phenyl)-6-methyl-pyrimidine-2,4-diamine, hydrochloride], the Ki in experiment [1] was below 1 µM; in experiment [2] it was above 1 µM; in experiment [3], above 1 µM.

As to `Cc1cccc(-c2ccc(Nc3nc(N)n(C)n3)cc2)c1` [Compound 411C, 1-methyl-N^3-(3′-methyl-biphenyl-4-yl)-1H-[1,2,4]triazole-3,5-diamine trifluoroacetic acid], the Ki in experiment [1] was below 1 µM; in experiment [2], above 1 µM; in experiment [3] it was above 1 µM.

Take `COc1ccc(-c2ccccc2)cc1-c1cnc(N)o1` [Compound 224A, 5-(4-methoxy-biphenyl-3-yl)-oxazol-2-ylamine, trifluoroacetic acid]: the results for the Ki in experiment [1], in experiment [2] and in experiment [3] were below 1 µM, above 1 µM and above 1 µM, respectively.

With `Nc1ncc(-c2cccc(-c3ccccc3)c2)o1` [Compound 209A, 5-Biphenyl-3-yl-oxazol-2-ylamine], the values for the Ki in experiment [1], in experiment [2] and in experiment [3] were below 0.316 µM, above 10 µM and above 10 µM, respectively.

Take `Cc1ccc(Nc2cc(C)nc(N)n2)cc1` [Compound 2U, 6-methyl-N^4-p-tolyl-pyrimidine-2,4-diamine hydrochloride]: the figures for the Ki in experiment [1], in experiment [2] and in experiment [3] were below 1 µM, above 1 µM and above 1 µM, respectively.

Turning to `CC(=O)Nc1nc(-c2cccc3ccccc23)c[nH]1` [Compound 103N, N-(4-Naphthalen-1-yl-1H-imidazol-2-yl)-acetamide], the figures for the Ki in experiment [1], in experiment [2] and in experiment [3] were below 1 µM, above 10 µM and above 10 µM, respectively.

In the case of `COc1ccccc1-c1cccc(Nc2nc(N)nn2C)c1` [Compound 406B, N^5-(2′-methoxy-biphenyl-3-yl)-1-methyl-1H-[1,2,4]triazole-3,5-diamine], the results for the Ki in experiment [1], in experiment [2] and in experiment [3] were below 0.316 µM, above 1 µM and above 1 µM, respectively.

Regarding `CC(=O)Nc1cccc(-c2cccc(Nc3cc(C)nc(N)n3)c2)c1` [Compound 10I, N-[3′-(2-amino-6-methyl-pyrimidin-4-ylamino)-biphenyl-3-yl]-acetamide hydrochloride], the Ki in experiment [1] is below 1 µM; in experiment [2] it was above 10 µM; in experiment [3], above 10 µM.
